≈ marks a conversion by molar mass, not a printed value.
Legend:
A549 = assay: Cytotoxicity in human A549 cells assessed as reduction in cell viability incubated for 48 hrs; assay type: functional, cell-based; conditions: A549, 48 h
PC-3 = assay: Cytotoxicity in human PC3 cells assessed as reduction in cell viability incubated for 48 hrs; assay type: functional, cell-based; conditions: PC-3, 48 h
Mycolicibacterium aurum = assay: Antimicrobial activity against Mycobacterium aurum ATCC 23366 incubated for 16 to 48 hrs; assay type: functional
Ambystoma mexicanum = assay: Toxicity in axolotl at <=10 uM by embryo tail regeneration assay; assay type: organism-based; conditions: in vivo
Bacillus subtilis = assay: Antimicrobial activity against Bacillus subtilis ATCC 6633 incubated for 16 to 48 hrs; assay type: functional
Saccharomyces cerevisiae = assay: Antimicrobial activity against Saccharomyces cerevisiae ATCC 204508 incubated for 16 to 48 hrs; assay type: functional
Salmonella enterica = assay: Antimicrobial activity against Salmonella enterica ATCC 10708 incubated for 16 to 48 hrs; assay type: functional
Escherichia coli = assay: Antimicrobial activity against Escherichia coli NRRL B-3708 incubated for 16 to 48 hrs; assay type: functional
Micrococcus luteus = assay: Antimicrobial activity against Micrococcus luteus NRRL B-287 incubated for 16 to 48 hrs; assay type: functional
Staphylococcus aureus = assay: Antimicrobial activity against Staphylococcus aureus ATCC 6538 incubated for 16 to 48 hrs; assay type: functional

Row | Structure (SMILES) | MIC (Mycolicibacterium aurum) [µM] | MIC (Bacillus subtilis) [µM] | MIC (Saccharomyces cerevisiae) [µM] | MIC (Salmonella enterica) [µM] | MIC (Escherichia coli) [µM] | MIC (Micrococcus luteus) [µM] | MIC (Staphylococcus aureus) [µM] | IC50 (A549) [µM] | IC50 (PC-3) [µM] | Activity (Ambystoma mexicanum)
1 | O=C(O)C1(O)O[C@@H]2[C@@H](Cc3nc4c(O)cccc4nc3[C@@H]2O)[C@H]1c1ccc(O)cc1 (stereo not given in full) | > 120 | > 120 | > 120 | > 120 | > 120 | > 120 | > 120 | > 50 | > 50 | Non-Toxic
2 | O=C(O)c1cc2c(c3nc4cccc(O)c4nc13)[C@@H]1Cc3nc4cccc(O)c4nc3[C@@](O)(C1)O2 | > 120 | > 120 | > 120 | > 120 | > 120 | > 120 | > 120 | > 50 | > 50 | Non-Toxic
3 | O=C(O)c1ccc(O)c2nc3c4c(ccc3nc12)[C@@H]1Cc2nc3cccc(O)c3nc2[C@H](O4)[C@H]1O | > 120 | > 120 | > 120 | > 120 | > 120 | > 120 | > 120 | > 50 | > 50 | Non-Toxic
4 | O=C(O)c1cccc2nc3c4c(ccc3nc12)[C@H]1c2nc3c(O)cccc3nc2C[C@@H]4[C@H]1O | > 120 | > 120 | > 120 | > 120 | > 120 | > 120 | > 120 | > 50 | > 50 | Non-Toxic
5 | O=C(O)C1(O)O[C@@H]2[C@@H](Cc3nc4c(O)cccc4nc3[C@@H]2O)[C@H]1c1c[nH]c2ccccc12 (stereo not given in full) | > 120 | > 120 | > 120 | > 120 | > 120 | > 120 | > 120 | > 50 | > 50 | Non-Toxic

Now from value to compound, other results behind:

Row | MIC (Mycolicibacterium aurum) [µM] | MIC (Bacillus subtilis) [µM] | MIC (Saccharomyces cerevisiae) [µM] | MIC (Salmonella enterica) [µM] | MIC (Escherichia coli) [µM] | MIC (Micrococcus luteus) [µM] | MIC (Staphylococcus aureus) [µM] | Structure (SMILES) | IC50 (A549) [µM] | IC50 (PC-3) [µM] | Activity (Ambystoma mexicanum)
6 | > 120 | > 120 | > 120 | > 120 | > 120 | > 120 | > 120 | O=C(O)C1(O)O[C@@H]2[C@@H](Cc3nc4c(O)cccc4nc3[C@H]2O)[C@H]1c1c[nH]c2ccccc12 (stereo not given in full) | > 50 | > 50 | Non-Toxic
7 | 30 (≈ 13.1 µg/mL) | 7.5 (≈ 3.27 µg/mL) | > 120 | > 120 | > 120 | 7.5 (≈ 3.27 µg/mL) | 4 (≈ 1.74 µg/mL) | NC(=O)c1cccc2nc3c4c(ccc3nc12)[C@H]1c2nc3c(O)cccc3nc2C[C@@H]4[C@@H]1O | 2.4 | 4.7 | Non-Toxic
